Experimental data taken from patent US20240423973A1, “COMPOUNDS, PHARMACEUTICAL COMPOSITIONS, AND METHODS FOR THE TREATMENT, PREVENTION, OR MANAGEMENT OF HYPERPROLIFERATIVE DISORDERS” (VINCERX PHARMA GMBH, priority 2021, published 2024).
Where a name gives a salt, the structure may show the parent alone. *1 amine or outer side, *2 acyl side, *3 side chain or, on linkers, in order; H or OH if unused. Where a SMILES comes first, the peptide text is derived from it. [ ]: non-standard residue; d: D form. The star is where a group is joined. X1 = CCCNC(=O)Nc1cccc(S(=O)(=O)Nc2cccc([C@@H](CC(=O)O)NC(=O)Nc3ccc(N*)cc3)c2)c1; Camptothecin(7-Et) = CCc1c2c(nc3ccccc13)-c1cc3c(c(=O)n1C2)COC(=O)[C@@]3(CC)O*; CO = O=C([*:1])[*:2]; Sar = CNCC(=O)O

Key:
786-O [1] = test: Cytotoxicity assay (Version 2), automated, AC50; assay type: cell-based, human; details: 786-O cells, Version 2, activity concentration at -50%, 4 parameter Hill-fit
Experimental: (§1) Cultivation of cells was performed according to standard procedures with the media recommended by the provider. The cells, in a total volume of 100 μL, were seeded in a 96-well plate with a white bottom (#3610). After a 24 h incubation period at 37° C. and 5% CO2, the medium was exchanged by adding 90 μL fresh medium. The treatment started by adding the test compound in 10 μL of culture medium to the cells in triplicates. Concentrations ranging from 10^−5 M to 10^−13 M were chosen. Two identically treated sets of samples were prepared. One set was treated with the test compound alone, whereas to the second set the compound and 10 nM elastase was added followed by a 72 h incubation period at 37° C. and 5% CO2. The proliferation was detected using the MTT assay (ATCC). At the end of the incubation period the MTT reagent was added to all samples for 4h. Lysis of the cells followed by addition of the detergent was done overnight. The formed dye was detected at 570 nm. The proliferation of untreated but otherwise identically handled cells was define as the […].
(§2) The Cytotoxicity assay (Version 2) was performed as above described. Some changes were applied as the assays were performed in an automated fashion and the IC50 values determination was changed. Here the change in metabolic activity of the cells, in percent, was calculated by normalization of the measured values to the absorbance values of medium containing wells without cells (=−100% ) and the absorbance of the DMSO-treated cells (=0% ). AC50 values (activity concentration at -50% o) were determined by means of a 4 parameter Hill-fit using GeneData Screener software.

HT29 [2] = test: Cytotoxicity assay (Version 2), automated, AC50; assay type: cell-based, human; details: HT29 cells, Version 2, activity concentration at -50%, 4 parameter Hill-fit
Experimental: as §1, §2

NCI H292 [3] = test: Cytotoxicity assay (Version 2), automated, AC50; assay type: cell-based, human; details: NCI H292 cells, Version 2, activity concentration at -50%, 4 parameter Hill-fit
Experimental: as §1, §2

SUM149 [4] = test: Cytotoxicity assay (Version 2), automated, AC50; assay type: cell-based; details: SUM149 cells, Version 2, activity concentration at -50%, 4 parameter Hill-fit
Experimental: as §1, §2

[5] = Pharmacokinetics in rat after intravenous administration; assay type: in vivo; details: male rats, intravenous 0.5 mg/kg bolus, plasma, non-compartmental analysis; for Vd: read-out: Vss
Experimental: Male rats (n=3) were given an intravenous 0.5 mg/kg bolus dose of test article dissolved in plasma with 1% DMSO and 1% ethanol (Ex A3 only). Serial blood samples were collected up to 24 hours post-dose. Plasma was harvested from blood samples and stored frozen until sample analysis. Test article plasma concentrations were analyzed by LC/MS/MS.

786-O [6] = test: Cytotoxicity in vitro in the presence and absence of elastase (MTT assay); assay type: cell-based, human; details: 786-O cells, 72 h
Experimental: as §1

HT29 [7] = test: as above; assay type: cell-based, human; details: HT29 cells, 72 h
Experimental: as §1

NCI H292 [8] = test: as above; assay type: cell-based, human; details: NCI H292 cells, 72 h
Experimental: as §1

SUM149 [9] = test: as above; assay type: cell-based; details: SUM149 cells, 72 h
Experimental: as §1

SMILES | AC50 (786-O [1]; no elastase) [nM] | AC50 (786-O [1]; with elastase) [nM] | AC50 (HT29 [2]; no elastase) [nM] | AC50 (HT29 [2]; with elastase) [nM] | AC50 (NCI H292 [3]; no elastase) [nM] | AC50 (NCI H292 [3]; with elastase) [nM] | AC50 (SUM149 [4]; no elastase) [nM] | AC50 (SUM149 [4]; with elastase) [nM] | AUC [5] [ng·h/mL] | clearance [5] [mL/min/kg] | half-life [5] [h] | Vd [5] [L/kg] | IC50 (786-O [6]; compound alone (no elastase)) [nM] | IC50 (786-O [6]; with 10 nM elastase) [nM] | IC50 (HT29 [7]; compound alone (no elastase)) [nM] | IC50 (HT29 [7]; with 10 nM elastase) [nM] | IC50 (NCI H292 [8]; compound alone (no elastase)) [nM] | IC50 (NCI H292 [8]; with 10 nM elastase) [nM] | IC50 (SUM149 [9]; compound alone (no elastase)) [nM] | IC50 (SUM149 [9]; with 10 nM elastase) [nM]
CCCNC(=O)Cc1cccc(S(=O)(=O)Nc2cccc([C@@H](CC(=O)O)NC(=O)Nc3ccc(NC(=O)NCCOCCOCCOCCC(=O)NCCNC(=O)[C@H](CCC(=O)NCCNC(=O)CCOCCOCCOCCNC(=O)Nc4ccc(NC(=O)N[C@H](CC(=O)O)c5cccc(NS(=O)(=O)c6cccc(NC(=O)NCCC)c6)c5)cc4)NC(=O)CCCC(=O)NCCN(C)CCN(C)CCN(C)CC(=O)NCC(=O)N4CCC[C@H]4C(=O)N[C@H](C(=O)O[C@]4(CC)C(=O)OCc5c4cc4n(c5=O)Cc5c-4nc4ccccc4c5CC)C(C)C)cc3)c2)c1 [Compound A11] | 11 to 100 | ≤ 10 | 110 to 1000 | 11 to 100 | ≤ 10 | ≤ 10 | ≤ 10 | ≤ 10 | – | – | – | – | – | – | – | – | – | – | – | –
CCCNC(=O)Nc1cccc(S(=O)(=O)Nc2cccc([C@@H](CC(=O)O)NC(=O)Nc3ccc(NC(=O)NCCOCCOCCOCCC(=O)N[C@@H](CC(=O)OCCC[N+](C)(C)C)C(=O)N4CCC[C@H]4C(=O)N[C@H](C(=O)O[C@]4(CC)C(=O)OCc5c4cc4n(c5=O)Cc5c-4nc4ccccc4c5CC)C(C)C)cc3)c2)c1 [Compound C5, trifluoroacetate] | 110 to 1000 | ≤ 10 | > 1000 | 11 to 100 | 110 to 1000 | ≤ 10 | 110 to 1000 | ≤ 10 | – | – | – | – | – | – | – | – | – | – | – | –
CCCNC(=O)Nc1cccc(S(=O)(=O)Nc2cccc([C@@H](CC(=O)O)NC(=O)Nc3ccc(NC(=O)N(C)CC(=O)N(C)CC(=O)N(C)CC(=O)N(C)CC(=O)N(C)CC(=O)N(C)CC(=O)N(C)CC(=O)N(C)CC(=O)N[C@@H](CC(=O)O)C(=O)N4CCC[C@H]4C(=O)N[C@H](C(=O)O[C@]4(CC)C(=O)OCc5c4cc4n(c5=O)Cc5c-4nc4ccccc4c5CC)C(C)C)cc3)c2)c1 [Compound D3] ({X1-CO}-[Sar][Sar][Sar][Sar][Sar][Sar][Sar][Sar]DPV-{Camptothecin(7-Et)}) | 110 to 1000 | ≤ 10 | 110 to 1000 | 11 to 100 | 110 to 1000 | ≤ 10 | 110 to 1000 | ≤ 10 | – | – | – | – | – | – | – | – | – | – | – | –
CCCNC(=O)Nc1cccc(S(=O)(=O)Nc2cccc([C@@H](CC(=O)O)NC(=O)Nc3ccc(NC(=O)NCCOCCOCCOCCC(=O)N[C@@H](CCCCNC(=O)CCCC(=O)NCCOCCOCCOCCC(=O)N[C@@H](CC(=O)O)C(=O)N4CCC[C@H]4C(=O)N[C@H](C(=O)O[C@]4(CC)C(=O)OCc5c4cc4n(c5=O)Cc5c-4nc4ccccc4c5CC)C(C)C)C(=O)NCCC(=O)O)cc3)c2)c1 [Compound E1] | – | – | – | – | – | – | – | – | 10000 to 50000 | 0.5 to 5 | 5 to 10 | > 0.1 | – | – | – | – | – | – | – | –
CCCNC(=O)Nc1cccc(S(=O)(=O)Nc2cccc([C@@H](CC(=O)O)NC(=O)Nc3ccc(NC(=O)NCCN(C)CCN(C)CCN(C)CC(=O)N[C@@H](CC(N)=O)C(=O)N4CCC[C@H]4C(=O)N[C@H](C(=O)O[C@]4(CC)C(=O)OCc5c4cc4n(c5=O)Cc5c-4nc4ccccc4c5CC)C(C)C)cc3)c2)c1.Cl.Cl.Cl [Compound B4b, (4S)-4,11-diethyl-3,14-dioxo-3,4,12,14-tetrahydro-1H-pyrano[3′,4′:6,7]indolizino[1,2-b]quinolin-4-yl N^2-{13-[4-({[(1R)-2-carboxy-1-{3-[({3-[(propylcarbamoyl)amino]phenyl}sulfonyl)amino]phenyl}ethyl]carbamoyl}amino)anilino]-3,6,9-trimethyl-13-oxo-12-aza-3,6,9-triazoniatridecan-1-oyl}-L-asparaginyl-L-prolyl-L-valinate trichloride] | – | – | – | – | – | – | – | – | 1000 to 10000 | 0.5 to 5 | 5 to 10 | > 0.1 | 10 to 100 | 0.1 to 1 | 10 to 100 | 0.1 to 1 | 10 to 100 | 0.1 to 1 | 10 to 100 | 0.01 to 0.1
